pIC50: −log10 of the molar value.

T1 sequence (P06730 whole entry): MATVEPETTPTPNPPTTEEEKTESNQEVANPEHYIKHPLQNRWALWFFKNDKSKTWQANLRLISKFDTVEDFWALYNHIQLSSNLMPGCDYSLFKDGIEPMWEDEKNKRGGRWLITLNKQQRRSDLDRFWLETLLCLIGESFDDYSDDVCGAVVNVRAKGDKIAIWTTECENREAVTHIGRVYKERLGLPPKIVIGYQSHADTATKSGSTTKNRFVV

The first assay concerns the target T1, human eIF4E protein (Homo sapiens, UniProt P06730).
T1 construct: purchased Novus NBP-45314
As to the kind of experiment: Biochemical competitive binding assay (TR-FRET competition, EDA-m7GDP-ATTO-647N probe). To be noted: read-out: hEIF4E TR-FRET IC50. An outline of the steps:
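His-tagged human eIF4E (4 nM) was preincubated with Eu-anti-His antibody (2.5 nM) and added to compound (11-point, 4-fold dilutions) for 15 min. Then 5 nM EDA-m7GDP-ATTO-647N was added for 15 min, in HEPES pH 7.5, 100 mM KCl. The 665/620 TR-FRET ratio was normalized to controls, and IC50 was taken from 4-parameter fits.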
Take `Cc1cc(-c2cc(Cl)ccc2OCCn2c(C)nc3c(c2=O)CC(N2CCc4[nH]ncc4C2)CC3)c2scc(C(=O)O)c2n1` (stereo not drawn) [Compound 159]: the pIC50 is more than 7.00.

On to `Cc1cc(-c2cc(Cl)ccc2OCCn2c(C)nc3c(c2=O)C[C@H](N(C)C[C@H]2C[C@@H](C(F)(F)F)C2)CC3)c2scc(C(=O)O)c2n1` (stereo in doubt) [Compound 223], for which the pIC50 is more than 7.00.

As for `Cc1cc(-c2cc(Cl)ccc2OCCn2c(C)nc3c(c2=O)CC(N(C)Cc2cccs2)CC3)c2scc(C(=O)O)c2n1` (stereo not drawn) [Compound 197], the pIC50 was more than 7.00.

As for `Cc1cc(-c2cc(Cl)ccc2OCCn2c(C)nc3c(c2=O)CC(N(C)Cc2ncccn2)CC3)c2scc(C(=O)O)c2n1` (stereo not drawn) [Compound 202], the pIC50 is more than 7.00.

Consider `Cc1nc2c(c(=O)n1CCOc1ccc(Cl)cc1-c1ccnc(C(=O)O)c1)CC(N(C)CC1CC(F)(F)C1)CC2` (stereo not drawn) [Compound 219], for which the pIC50 was more than 7.00.

Take `Cc1cc(-c2cc(Cl)ccc2OCCn2c(C)nc3c(c2=O)CC(N(C)CC2CC(F)(F)C2)CC3)c2scc(C(N)=O)c2n1` (stereo not drawn) [Compound 138]: the pIC50 was 6.30 to 7.00.

Turning to `Cc1cc(-c2cc(Cl)ccc2OCCn2c(C)nc3c(c2=O)C[C@H](N2C[C@H]4CC(F)(F)[C@H]4C2)CC3)c2scc(C(=O)O)c2n1` (single isomer, unassigned) [Compound 147], the pIC50 was more than 7.00.

Consider `Cc1cc(-c2cc(Cl)ccc2OCCn2c(C)nc3c(c2=O)CC(N(C)C)CO3)c2scc(C(=O)O)c2n1` (stereo not drawn) [Compound 230], for which the pIC50 was more than 7.00.

Take `Cc1cc(-c2cc(Cl)ccc2OCCn2c(C)nc3c(c2=O)CC(N(C)C2(C4CCC4)CC2)CC3)c2scc(C(=O)NS(C)(=O)=O)c2n1` (single isomer, unassigned) [Compound 231]: the pIC50 was more than 7.00.

Turning to `Cc1cc(-c2cc(Cl)ccc2OCCn2c(C)nc3c(c2=O)CC(N2C[C@@H]4CC(F)(F)C[C@@H]4C2)CC3)c2scc(C(=O)O)c2n1` (stereo partly drawn) [Compound 175], the pIC50 is more than 7.00.

For `Cc1cc(-c2cc(Cl)ccc2OCCn2c(C)nc3c(c2=O)CC(N2CC4(CC=C(F)CC4)C2)CC3)c2scc(C(=O)O)c2n1` (stereo not drawn) [Compound 162], the pIC50 is more than 7.00.

With `Cc1cc(-c2cc(Cl)ccc2OCCn2c(C)nc3c(c2=O)CC(N2CCc4cccnc4C2)CC3)c2scc(C(=O)O)c2n1` (stereo not drawn) [Compound 165], the pIC50 was more than 7.00.

As to `Cc1cc(-c2cc(Cl)ccc2OCCn2c(C)nc3c(c2=O)CC(N2CCC(C4CC(F)(F)C4)CC2)CC3)c2scc(C(=O)O)c2n1` (stereo not drawn) [Compound 156], the pIC50 is more than 7.00.

Turning to `Cc1cc(-c2cc(Cl)ccc2OCCn2c(C)nc3c(c2=O)CC(N(C)Cc2ccnc(C(F)(F)F)c2)CC3)c2scc(C(=O)O)c2n1` (stereo not drawn) [Compound 198], the pIC50 is more than 7.00.

With `Cc1cc(-c2cc(Cl)ccc2OCCn2c(C)nc3c(c2=O)CC(N(C)CC2CC(F)(F)C2)CC3)c2scc(C(=O)NCC(F)F)c2n1` (stereo not drawn) [Compound 150], the pIC50 is 5.30 to 6.30.

For `Cc1cc(-c2cc(Cl)ccc2OCCn2c(C)nc3c(c2=O)CC(N2CCc4cc(C(F)(F)F)ccc4C2)CC3)c2scc(C(=O)O)c2n1` (stereo not drawn) [Compound 160], the pIC50 is more than 7.00.

For another assay, the system named is COLO 205 colorectal tumor cells. The experiment in a line: Tumor cell viability inhibition assay (CellTiter-Glo 2.0, 72 hours). To be noted: Homo sapiens, COLO 205, 72 h, COLO 205 cell viability. The assay is classed as cell-based. The essentials:
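COLO 205 cells (1500/well, RPMI-1640 + 10% FBS) exposed for 72 h to an 11-point, 4-fold dilution series; cellular ATP read by CellTiter-Glo 2.0 luminescence. Data normalized to DMSO and maximum-inhibition controls; IC50 from 4-parameter curve fit.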
With `Cc1cc(-c2cc(Cl)ccc2OCCn2c(C)nc3c(c2=O)CC(N2CCc4[nH]ncc4C2)CC3)c2scc(C(=O)O)c2n1` (stereo not drawn) [Compound 159], the pIC50 is less than 4.70.

In turn, `Cc1cc(-c2cc(Cl)ccc2OCCn2c(C)nc3c(c2=O)C[C@H](N(C)C[C@H]2C[C@@H](C(F)(F)F)C2)CC3)c2scc(C(=O)O)c2n1` (stereo in doubt) [Compound 223] had a pIC50 of more than 5.30.

The molecule `Cc1cc(-c2cc(Cl)ccc2OCCn2c(C)nc3c(c2=O)CC(N(C)Cc2cccs2)CC3)c2scc(C(=O)O)c2n1` (stereo not drawn) [Compound 197] showed a pIC50 of more than 5.30.

In turn, `Cc1cc(-c2cc(Cl)ccc2OCCn2c(C)nc3c(c2=O)CC(N(C)Cc2ncccn2)CC3)c2scc(C(=O)O)c2n1` (stereo not drawn) [Compound 202] showed a pIC50 of less than 4.70.

The molecule `Cc1nc2c(c(=O)n1CCOc1ccc(Cl)cc1-c1ccnc(C(=O)O)c1)CC(N(C)CC1CC(F)(F)C1)CC2` (stereo not drawn) [Compound 219] had a pIC50 of less than 4.70.

In turn, `Cc1cc(-c2cc(Cl)ccc2OCCn2c(C)nc3c(c2=O)CC(N(C)CC2CC(F)(F)C2)CC3)c2scc(C(N)=O)c2n1` (stereo not drawn) [Compound 138] gave a pIC50 of 4.70 to 5.30.

Regarding `Cc1cc(-c2cc(Cl)ccc2OCCn2c(C)nc3c(c2=O)C[C@H](N2C[C@H]4CC(F)(F)[C@H]4C2)CC3)c2scc(C(=O)O)c2n1` (single isomer, unassigned) [Compound 147], the pIC50 was more than 5.30.

In turn, `Cc1cc(-c2cc(Cl)ccc2OCCn2c(C)nc3c(c2=O)CC(N(C)C)CO3)c2scc(C(=O)O)c2n1` (stereo not drawn) [Compound 230] gave a negative-log IC50 (pIC50) of 4.70 to 5.30.

In the case of `Cc1cc(-c2cc(Cl)ccc2OCCn2c(C)nc3c(c2=O)CC(N(C)C2(C4CCC4)CC2)CC3)c2scc(C(=O)NS(C)(=O)=O)c2n1` (single isomer, unassigned) [Compound 231], the pIC50 was 4.70 to 5.30.

The molecule `Cc1cc(-c2cc(Cl)ccc2OCCn2c(C)nc3c(c2=O)CC(N2C[C@@H]4CC(F)(F)C[C@@H]4C2)CC3)c2scc(C(=O)O)c2n1` (stereo partly drawn) [Compound 175] had a pIC50 of more than 5.30.

The molecule `Cc1cc(-c2cc(Cl)ccc2OCCn2c(C)nc3c(c2=O)CC(N2CC4(CC=C(F)CC4)C2)CC3)c2scc(C(=O)O)c2n1` (stereo not drawn) [Compound 162] had a pIC50 of more than 5.30.

Molecule `Cc1cc(-c2cc(Cl)ccc2OCCn2c(C)nc3c(c2=O)CC(N2CCc4cccnc4C2)CC3)c2scc(C(=O)O)c2n1` (stereo not drawn) [Compound 165] gave a pIC50 of more than 5.30.

`Cc1cc(-c2cc(Cl)ccc2OCCn2c(C)nc3c(c2=O)CC(N2CCC(C4CC(F)(F)C4)CC2)CC3)c2scc(C(=O)O)c2n1` (stereo not drawn) [Compound 156] had a pIC50 of more than 5.30.

Turning to `Cc1cc(-c2cc(Cl)ccc2OCCn2c(C)nc3c(c2=O)CC(N(C)Cc2ccnc(C(F)(F)F)c2)CC3)c2scc(C(=O)O)c2n1` (stereo not drawn) [Compound 198], the pIC50 is more than 5.30.

Molecule `Cc1cc(-c2cc(Cl)ccc2OCCn2c(C)nc3c(c2=O)CC(N(C)CC2CC(F)(F)C2)CC3)c2scc(C(=O)NCC(F)F)c2n1` (stereo not drawn) [Compound 150] had a pIC50 of 4.70 to 5.30.

`Cc1cc(-c2cc(Cl)ccc2OCCn2c(C)nc3c(c2=O)CC(N2CCc4cc(C(F)(F)F)ccc4C2)CC3)c2scc(C(=O)O)c2n1` (stereo not drawn) [Compound 160]: the pIC50 was more than 5.30.

A further assay relates to cyclin D1 protein levels in COLO 205 cells. As to the kind of experiment: Cyclin D1 cellular inhibition assay (HTRF, 6 hours). The class given is cell-based. The settings on record: Homo sapiens, COLO 205, 6 h, 6 hours of compound treatment, Cyclin D1 protein levels by HTRF, read-out: COLO 205 6 h Cyclin D1 TR-FRET IC50. On the procedure: The effect of compound treatment on cyclin D1 protein levels in COLO 205 cells was assessed, as follows. Test compound plates were prepared with a Tecan D300e Digital Dispenser as 11-point concentration-response curves with a final DMSO concentration of 1%. COLO 205 (ATCC, CCL-222) colorectal tumor cells were seeded to assay-ready plates in RPMI-1640 medium supplemented with 10% FBS at 20,000 cells in a volume of 6 microliters per well. After 6 hours of compound treatment, cells were lysed and Cyclin D1 protein levels were assessed by an HTRF assay (PerkinElmer #64CYCD1ITPEG), according to the manufacturer's protocol. Time-resolved fluorescence was measured using a Clariostar Plus microplate reader (BMG Labtech) or equivalent. After normalization to the average of DMSO control and maximum inhibition control wells, concentration-response data were plotted and standard 4-parameter curve fitting (GraphPad Prism v9.4.1) was utilized to determine IC50 values.
For the molecule `Cc1cc(-c2cc(Cl)ccc2OCCn2c(C)nc3c(c2=O)CC(N2CCc4[nH]ncc4C2)CC3)c2scc(C(=O)O)c2n1` (stereo not drawn) [Compound 159], the pIC50 is less than 4.70.

For the molecule `Cc1cc(-c2cc(Cl)ccc2OCCn2c(C)nc3c(c2=O)C[C@H](N(C)C[C@H]2C[C@@H](C(F)(F)F)C2)CC3)c2scc(C(=O)O)c2n1` (stereo in doubt) [Compound 223], the pIC50 was more than 5.30.

`Cc1cc(-c2cc(Cl)ccc2OCCn2c(C)nc3c(c2=O)CC(N(C)Cc2cccs2)CC3)c2scc(C(=O)O)c2n1` (stereo not drawn) [Compound 197]: the pIC50 is more than 5.30.

For the molecule `Cc1cc(-c2cc(Cl)ccc2OCCn2c(C)nc3c(c2=O)CC(N(C)Cc2ncccn2)CC3)c2scc(C(=O)O)c2n1` (stereo not drawn) [Compound 202], the pIC50 was 4.70 to 5.30.

As to `Cc1nc2c(c(=O)n1CCOc1ccc(Cl)cc1-c1ccnc(C(=O)O)c1)CC(N(C)CC1CC(F)(F)C1)CC2` (stereo not drawn) [Compound 219], the pIC50 was less than 4.70.

Consider `Cc1cc(-c2cc(Cl)ccc2OCCn2c(C)nc3c(c2=O)CC(N(C)CC2CC(F)(F)C2)CC3)c2scc(C(N)=O)c2n1` (stereo not drawn) [Compound 138], for which the pIC50 is less than 4.70.

For the molecule `Cc1cc(-c2cc(Cl)ccc2OCCn2c(C)nc3c(c2=O)C[C@H](N2C[C@H]4CC(F)(F)[C@H]4C2)CC3)c2scc(C(=O)O)c2n1` (single isomer, unassigned) [Compound 147], the pIC50 was more than 5.30.

In the case of `Cc1cc(-c2cc(Cl)ccc2OCCn2c(C)nc3c(c2=O)CC(N(C)C)CO3)c2scc(C(=O)O)c2n1` (stereo not drawn) [Compound 230], the pIC50 was 4.70 to 5.30.

Consider `Cc1cc(-c2cc(Cl)ccc2OCCn2c(C)nc3c(c2=O)CC(N(C)C2(C4CCC4)CC2)CC3)c2scc(C(=O)NS(C)(=O)=O)c2n1` (single isomer, unassigned) [Compound 231], for which the pIC50 is 4.70 to 5.30.

`Cc1cc(-c2cc(Cl)ccc2OCCn2c(C)nc3c(c2=O)CC(N2C[C@@H]4CC(F)(F)C[C@@H]4C2)CC3)c2scc(C(=O)O)c2n1` (stereo partly drawn) [Compound 175]: the pIC50 was more than 5.30.

As to `Cc1cc(-c2cc(Cl)ccc2OCCn2c(C)nc3c(c2=O)CC(N2CC4(CC=C(F)CC4)C2)CC3)c2scc(C(=O)O)c2n1` (stereo not drawn) [Compound 162], the pIC50 was more than 5.30.

`Cc1cc(-c2cc(Cl)ccc2OCCn2c(C)nc3c(c2=O)CC(N2CCc4cccnc4C2)CC3)c2scc(C(=O)O)c2n1` (stereo not drawn) [Compound 165]: the pIC50 was more than 5.30.

On to `Cc1cc(-c2cc(Cl)ccc2OCCn2c(C)nc3c(c2=O)CC(N2CCC(C4CC(F)(F)C4)CC2)CC3)c2scc(C(=O)O)c2n1` (stereo not drawn) [Compound 156], for which the pIC50 was more than 5.30.

For the molecule `Cc1cc(-c2cc(Cl)ccc2OCCn2c(C)nc3c(c2=O)CC(N(C)Cc2ccnc(C(F)(F)F)c2)CC3)c2scc(C(=O)O)c2n1` (stereo not drawn) [Compound 198], the pIC50 was more than 5.30.

Turning to `Cc1cc(-c2cc(Cl)ccc2OCCn2c(C)nc3c(c2=O)CC(N(C)CC2CC(F)(F)C2)CC3)c2scc(C(=O)NCC(F)F)c2n1` (stereo not drawn) [Compound 150], the pIC50 is less than 4.70.

Regarding `Cc1cc(-c2cc(Cl)ccc2OCCn2c(C)nc3c(c2=O)CC(N2CCc4cc(C(F)(F)F)ccc4C2)CC3)c2scc(C(=O)O)c2n1` (stereo not drawn) [Compound 160], the pIC50 is more than 5.30.

Source of the values: US20240246918A1, “COMPOUNDS AND COMPOSITIONS AS EIF4E INHIBITORS AND THE USES THEREOF” (Ribometrix, Inc., priority 2022, published 2024).
